{"source": "patent US20110052678A1", "about": "“METHOD FOR TREATING AGE RELATED MACULAR DEGENERATION” (priority 2010, published 2011)", "key": {"[1]": {"test_system": "patients with neovascular ARMS", "details": "intravitreous 1.25 mg injections; cited from earlier work"}, "[2]": {"test_system": "individuals with macular edema", "details": "fluorescein angiography; cited from earlier work"}, "[3]": {"test_system": "photoreceptor cell", "details": "in vitro model; cited from earlier work"}, "[4]": {"details": "in vivo; cited from earlier work"}, "[5]": {"details": "cited from earlier work"}, "[6]": {"details": "after oral intake; cited from earlier work"}, "[7]": {"test_system": "patients", "details": "supplementation; cited from earlier work"}, "[8]": {"test_system": "dry mouth and dry eyes conditions", "test": "Clinical use of ADT orally and as eye drops", "type": "in vivo", "details": "25 mg orally and nanograms concentration in eye drops", "experimental": "We have used ADT 25 mg orally and ADT in nanograms concentration in liquid ophthalmic eye drops with success in these conditions, especially, those on chemotherapy, menopausal women, and chronic smokers with dry mouth and dry eyes conditions. There is secretory dysfunction associated with RPE and Muller cells which are needed for proper functioning of the photoreceptors by removing ROS. This can be one of the important non toxic oral and eye drops for the treatment of age related macular degeneration (Ben-Mandi M H, Gozin A, Driss F, Andrieu V, Christen M O, Pasquier C. Anethole dithiolethione regulates oxidant-induced tyrosine kinase activation in endothelial cells. Antioxid Redox Signal. 2000 Winter, 2 (4):789-99). […] (Han S F, Yao T T, Zhang X X, Gan L, Zhu C, Yu H Z, Gan Y. Int J Pharm. Lipid-based formulations to enhance oral bioavailability of the poorly water-soluble drug anetholtrithione: effects of lipid composition and formulation. 2009 Sep. 8; 379(1):18-24. Epub 2009 Jun. 7.)."}, "[9]": {"details": "water; cited from earlier work"}, "[10]": {"test_system": "patients", "test": "Clinical use of MSM ophthalmic drops by the inventor", "type": "in vivo, human", "text": "We have used aqueous solutions of MSM filtered, sterilized, and mixed with insulin."}, "[11]": {"test_system": "oxidized cells", "details": "H2O2 induced, insulin pretreatment; cited from earlier work"}, "[12]": {"details": "local application incl. conjunctival sac, scalp, gums, wounds", "from_the_text": "The present invention formulations contain only 0.10 to 1.00 IU per drop which the dosage can be increased or the dosage can be decreased depending upon the disease states."}}}
{"compound": "bevacizumab", "values": [{"measurement": "patients improved 10 or more letters", "setting": "[1]", "value": "more than 45%"}]}
{"compound": "CC(=O)Nc1nnc(S(N)(=O)=O)s1", "note": "[acetazolamide]", "values": [{"measurement": "leakage of dye into the photoreceptor area", "setting": "[2]", "value": "inhibited"}]}
{"compound": "brimonidine tartrate", "values": [{"measurement": "photoreceptor cell degeneration", "setting": "[3]", "value": "prevent photoreceptor cell degeneration"}]}
{"compound": "Insulin detemir", "values": [{"measurement": "Peak action in hours", "setting": "[4]", "value": "6 to 8", "unit": "h"}]}
{"compound": "Regular (soluble): short-acting regular (soluble) insulin", "values": [{"measurement": "Peak action in hours", "setting": "[4]", "value": "2 to 3", "unit": "h"}]}
{"compound": "hyaluronic acid", "values": [{"measurement": "pH", "setting": "[5]; 0.1% solution", "value": "6.0-7.5"}, {"measurement": "water contained relative to own weight", "setting": "[5]; hydrated", "value": "up to 1,000 fold"}]}
{"compound": "Vitamin A", "values": [{"measurement": "time to peak blood concentration", "setting": "[6]", "value": "one"}, {"measurement": "postponement of blindness", "setting": "[7]", "value": "~10", "unit": "years"}]}
{"compound": "anethole dithiolethione [ADT]", "values": [{"measurement": "treatment outcome", "setting": "[8]", "value": "success"}]}
{"compound": "CS(C)(=O)=O", "note": "[MSM, Methylsulfonylmethane]", "values": [{"measurement": "solubility", "setting": "[9]", "value": "soluble in water"}, {"measurement": "treatment outcome", "setting": "[10]; aqueous MSM mixed with insulin as eye drops, ARMD, retinitis pigmentosa, cataract, dry eye, glaucoma", "value": "good results"}, {"measurement": "patient-reported vision", "setting": "[10]; ophthalmic drops, aged, Lyme disease and cancer patients", "value": "their vision had improved"}]}
{"compound": "Insulin glargine", "values": [{"measurement": "Peak action in hours", "setting": "[4]", "value": "8 to 16", "unit": "h"}]}
{"compound": "insulin", "values": [{"measurement": "lipid peroxidation", "setting": "[11]", "value": "significantly inhibited"}, {"measurement": "change of blood sugar levels (hypoglycemic effect)", "setting": "[12]", "value": "did not change the blood sugar levels"}]}
{"compound": "NPH (isophane): intermediate-acting NPH (isophane) insulin", "values": [{"measurement": "Peak action in hours", "setting": "[4]", "value": "6 to 10", "unit": "h"}]}
